Measurements as given in patent US8362000B2, “Azetidinyl diamides as monoacylglycerol lipase inhibitors” (Janssen Pharmaceutica NV, priority 2009, dated 2013).
Residue numbers refer to the chain shown, from its start. Read-outs that look alike come from different tables or passages of the source.

How the values were obtained:
MGL = molecular target: T1, MGL (Rattus norvegicus, UniProt Q8R431); assay: 2-AG accumulation assay in rat brain homogenate; type: biochemical; settings: rat brain homogenate, 2-AG accumulation as percent of vehicle; for 2-AG accumulation, % of vehicle control at 0.01 µM: compound 0.01 μM, read-out: Rat Brain 2AG % VehCntrl (%) @ 0.01 μM; for 2-AG accumulation, % of vehicle control at 0.1 µM: compound 0.1 μM, read-out: Rat Brain 2AG % VehCntrl (%) @ 0.1 μM; for 2-AG accumulation, % of vehicle control at 1 µM: compound 1 μM, read-out: Rat Brain 2AG % VehCntrl (%) @ 1 μM; for 2-AG accumulation, % of vehicle control at 10 µM: compound 10 μM, read-out: Rat Brain 2AG % VehCntrl (%) @ 10 μM
T1 construct: one g rat brain was homogenized using a Polytron homogenizer; from tissue; host or cells: rat brain homogenate
T1 sequence (Q8R431 1-303): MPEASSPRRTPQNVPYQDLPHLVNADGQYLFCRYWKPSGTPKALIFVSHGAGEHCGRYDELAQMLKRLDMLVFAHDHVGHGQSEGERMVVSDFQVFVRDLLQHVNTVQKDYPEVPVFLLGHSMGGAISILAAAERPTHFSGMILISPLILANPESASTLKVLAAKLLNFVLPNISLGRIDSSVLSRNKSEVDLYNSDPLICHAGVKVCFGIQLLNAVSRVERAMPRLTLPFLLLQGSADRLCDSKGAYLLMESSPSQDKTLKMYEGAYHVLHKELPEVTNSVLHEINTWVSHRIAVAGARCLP

mutant MGL = molecular target: T2, mutant MGL (Homo sapiens, UniProt Q99685, L169S/L176S); assay: MGL ThermoFluor assay - mutant; type: binding; settings: read-out: MGL mutant ThermoFluor Kd
T2 sequence (Q99685 1-303 L169S/L176S): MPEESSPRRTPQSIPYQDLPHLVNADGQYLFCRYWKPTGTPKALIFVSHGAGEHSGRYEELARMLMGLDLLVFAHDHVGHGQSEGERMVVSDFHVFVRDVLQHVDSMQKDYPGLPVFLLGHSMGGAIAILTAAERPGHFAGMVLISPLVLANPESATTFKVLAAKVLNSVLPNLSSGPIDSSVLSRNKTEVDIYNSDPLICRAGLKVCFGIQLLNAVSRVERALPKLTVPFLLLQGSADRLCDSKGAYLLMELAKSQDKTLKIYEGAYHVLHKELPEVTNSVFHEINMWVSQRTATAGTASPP

[1] = system: CFA-induced paw radiant heat hypersensitivity; assay: CFA-induced paw radiant heat hypersensitivity; type: in vivo, rat; settings: Rattus norvegicus, po, 30 mg/kg p.o., HPβCD, last time point 180 or 300 min
Procedure: Each rat was placed in a test chamber on a warm glass surface and allowed to acclimate for approximately 10 min. A radiant thermal stimulus (beam of light) was then focused through the glass onto the plantar surface of each hind paw in turn. The thermal stimulus was automatically shut off by a photoelectric relay when the paw was moved or when the cut-off time was reached (20 sec for radiant heat at ˜5 amps). An initial (baseline) response latency to the thermal stimulus was recorded for each animal prior to the injection of complete Freund's adjuvant (CFA). […] Immediately following the post-CFA latency assessment, the indicated test compound or vehicle was administered orally.
The percent reversal (% R) of hypersensitivity was calculated in one of two different ways: 1) using group mean values or 2) using individual animal values. More specifically:
Method 2. For some compounds, the % R of hypersensitivity was calculated separately for each animal according to the following formula: % reversal=[(individual treatment response−individual CFA response)/(individual baseline response−individual CFA response)]×100. Results are given as a mean of the maximum % reversal values calculated for each individual animal.

[2] = molecular target: T3, purified wild type MGL (wt-MGLL 6H-11-313) (Homo sapiens, UniProt Q99685)
T3 sequence (Q99685 1-303): T2 sequence (Q99685 1-303 L169S/L176S) with S169L, S176L

[3] = ThermoFluor concentration-response
[4] = group mean values, read-out: CFA thermal hypersensitivity Method 1: peak % reversal
[5] = individual animal values, read-out: CFA thermal hypersensitivity Method 2: peak % reversal
[6] = ThermoFluor thermal stability binding assay

Row | Compound | 2-AG accumulation, % of vehicle control at 0.01 µM (MGL) [%] | 2-AG accumulation, % of vehicle control at 0.1 µM (MGL) [%] | 2-AG accumulation, % of vehicle control at 1 µM (MGL) [%] | Kd (mutant MGL; [3]) [nM] | inhibition in vivo at 30 mg/kg [1, 4] [%] | inhibition in vivo at 30 mg/kg [1, 5] [%] | IC50 [2] [nM] | 2-AG accumulation, % of vehicle control at 10 µM (MGL) [%] | Kd (mutant MGL; [6]) [nM]
1 | O=C(c1ccc(-c2ccccc2)cc1)N1CC(N2CCN(C(=O)c3nccs3)CC2)C1 [Cpd 9, 1-[1-(Biphenyl-4-ylcarbonyl)azetidin-3-yl]-4-(1,3-thiazol-2-ylcarbonyl)piperazine] | 99 | 184 | 529 | 2.48 | 75.4 | 77.4 | 17.4 |  | 
2 | O=C(c1ccccc1)N1CCN(C2CN(C(=O)c3ccc(-c4ccc(Cl)c(Cl)c4)cc3)C2)CC1 [Cpd 39, 1-{1-[(3′,4′-Dichlorobiphenyl-4-yl)carbonyl]azetidin-3-yl}-4-(phenylcarbonyl)piperazine] |  | 173 | 168 | 25 | 39.1 | 39.7 | 14.7 | 277 | 
3 | O=C(c1ccc(-c2cccc(C(F)(F)F)c2)cc1)N1CC(N2CCN(C(=O)c3cscn3)CC2)C1 [Cpd 229, 1-(1,3-Thiazol-4-ylcarbonyl)-4-(1-{[3′-(trifluoromethyl)biphenyl-4-yl]carbonyl}azetidin-3-yl)piperazine] |  | 276 | 552 |  | 55.8 | 56.6 | < 5 |  | 12.5
4 | Cc1cc(-c2cccc(C(F)(F)F)c2)ccc1C(=O)N1CC(N2CCN(C(=O)c3nccs3)CC2)C1 [Cpd 239, 1-(1-{[3-Methyl-3′-(trifluoromethyl)biphenyl-4-yl]carbonyl}azetidin-3-yl)-4-(1,3-thiazol-2-ylcarbonyl)piperazine] | 153 | 290 |  |  | 81.8 | 87.5 | 10 |  | 5
5 | Cc1cc(-c2cccc(C(F)(F)F)c2)ccc1C(=O)N1CC(N2CCN(C(=O)c3cscn3)CC2)C1 [Cpd 240, 1-(1-{[3-Methyl-3′-(trifluoromethyl)biphenyl-4-yl]carbonyl}azetidin-3-yl)-4-(1,3-thiazol-4-ylcarbonyl)piperazine] |  | 184 | 538 |  | 43 | 44.4 | 50.8 | 639 | 23.2
6 | O=C(c1nccs1)N1CCN(C2CN(C(=O)c3ccc(-c4cccc(C(F)(F)F)c4)cc3Cl)C2)CC1 [Cpd 250, 1-(1-{[3-Chloro-3′-(trifluoromethyl)biphenyl-4-yl]carbonyl}azetidin-3-yl)-4-(1,3-thiazol-2-ylcarbonyl)piperazine] | 180 | 472 |  |  | 41.7 | 41.9 | < 5 |  | 1.7
7 | O=C(c1cscn1)N1CCN(C2CN(C(=O)c3ccc(-c4cccc(C(F)(F)F)c4)cc3Cl)C2)CC1 [Cpd 251, 1-(1-{[3-Chloro-3′-(trifluoromethyl)biphenyl-4-yl]carbonyl}azetidin-3-yl)-4-(1,3-thiazol-4-ylcarbonyl)piperazine] |  | 144 | 586 |  | 35.1 | 38.5 | 17 | 791 | 14.3
8 | Cc1cc(-c2ccc(F)c(Cl)c2)ccc1C(=O)N1CC(N2CCN(C(=O)c3cscn3)CC2)C1 [Cpd 253, 1-{1-[(3′-Chloro-4′-fluoro-3-methylbiphenyl-4-yl)carbonyl]azetidin-3-yl}-4-(1,3-thiazol-4-ylcarbonyl)piperazine] |  | 107 | 319 |  | 64.3 | 87.2 | 49.4 | 624 | 21.5
